Data as given in patent publication US20250326749A1, “COMPOUNDS, COMPOSITIONS, AND METHODS OF USING THEREOF” (Sionna Therapeutics Inc., priority 2022, published 2025).

Biological target: T1, ΔF508-CFTR (Homo sapiens, UniProt P13569, DEL508-508)
T1 construct: expressed in transfected cells; host or cells: CFSMEo- (human CF submucosal gland epithelial cells, ΔF508/Q2X), transiently transfected by nucleofection
Assay: ΔF508-CFTR-HRP trafficking assay (cell surface expression of ΔF508-CFTR)
Assay type: cell-based
Conditions: CFSMEo- cells transiently transfected with ΔF508-CFTR-HRP; test agent 3 μM, 48 h; HRP chemiluminescence
In short: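 Surface-expressed ΔF508-CFTR measured via extracellular HRP tag: cell-impermeable chemiluminescent substrate, 5 min, signal normalized to 0.3% DMSO vehicle.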

T1 sequence (P13569 with tags, fused parts or gaps DEL508-508): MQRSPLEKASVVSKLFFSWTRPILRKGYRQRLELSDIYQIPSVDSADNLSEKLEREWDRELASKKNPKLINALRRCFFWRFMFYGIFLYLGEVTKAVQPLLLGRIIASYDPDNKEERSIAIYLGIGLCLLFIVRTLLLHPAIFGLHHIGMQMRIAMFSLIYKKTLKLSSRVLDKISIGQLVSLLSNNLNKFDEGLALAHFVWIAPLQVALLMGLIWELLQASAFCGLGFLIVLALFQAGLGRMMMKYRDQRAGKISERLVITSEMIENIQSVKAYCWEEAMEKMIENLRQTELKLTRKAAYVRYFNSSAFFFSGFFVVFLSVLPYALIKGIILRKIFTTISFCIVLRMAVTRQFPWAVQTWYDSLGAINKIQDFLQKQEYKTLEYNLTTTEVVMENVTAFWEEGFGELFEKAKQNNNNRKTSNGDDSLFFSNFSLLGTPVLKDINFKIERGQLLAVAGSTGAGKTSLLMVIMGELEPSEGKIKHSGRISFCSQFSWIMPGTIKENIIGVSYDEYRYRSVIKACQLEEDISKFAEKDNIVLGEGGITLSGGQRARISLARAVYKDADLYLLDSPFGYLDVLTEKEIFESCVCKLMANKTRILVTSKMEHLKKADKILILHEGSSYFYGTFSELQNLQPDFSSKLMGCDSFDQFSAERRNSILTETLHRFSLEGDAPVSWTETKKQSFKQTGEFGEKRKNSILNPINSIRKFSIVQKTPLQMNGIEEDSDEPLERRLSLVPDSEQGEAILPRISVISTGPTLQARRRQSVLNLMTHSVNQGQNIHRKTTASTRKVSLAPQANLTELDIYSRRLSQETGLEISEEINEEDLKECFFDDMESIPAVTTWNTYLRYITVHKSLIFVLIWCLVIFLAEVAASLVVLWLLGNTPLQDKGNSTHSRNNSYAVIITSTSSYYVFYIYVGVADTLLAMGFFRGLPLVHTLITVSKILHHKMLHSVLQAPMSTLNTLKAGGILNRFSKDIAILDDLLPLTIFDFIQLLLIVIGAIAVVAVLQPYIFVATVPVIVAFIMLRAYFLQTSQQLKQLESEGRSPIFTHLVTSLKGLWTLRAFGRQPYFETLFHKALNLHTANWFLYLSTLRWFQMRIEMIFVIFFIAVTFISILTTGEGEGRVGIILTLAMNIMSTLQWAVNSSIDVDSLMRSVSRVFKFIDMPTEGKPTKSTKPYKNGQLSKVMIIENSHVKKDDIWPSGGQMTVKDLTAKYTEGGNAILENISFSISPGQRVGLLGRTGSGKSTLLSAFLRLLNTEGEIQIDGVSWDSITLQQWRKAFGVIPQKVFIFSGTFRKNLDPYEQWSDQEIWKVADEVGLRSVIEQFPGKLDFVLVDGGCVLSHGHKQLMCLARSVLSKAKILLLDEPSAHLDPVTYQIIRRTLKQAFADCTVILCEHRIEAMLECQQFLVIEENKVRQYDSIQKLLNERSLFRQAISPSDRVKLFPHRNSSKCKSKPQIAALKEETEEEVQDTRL

SMILES	RLUs: ΔF508-CFTR-HRP trafficking data normalized to the vehicle treated control (0.3% DMSO)
C[C@H](Oc1cnnc(-n2nc(C(F)(F)F)c3c2[C@@H](Oc2ccc(C(=O)O)cc2)CCC3)c1)c1ccc2c(c1)OC(F)(F)O2 (single isomer, unassigned) [Example 36h]	B (RLU 3.5 μM-5.0 μM)
C[C@H](Oc1cc(-n2nc(C(F)(F)F)c3c2[C@@H](Oc2ccc(C(=O)O)cc2)CCC3)ncc1F)c1ccc2c(c1)OC(F)(F)O2 (single isomer, unassigned) [Example 36i]	A (RLU 5.0 μM-10 μM)
C[C@H](Oc1cc(-n2nc(C(F)(F)F)c3c2[C@@H](Oc2ccc(C(=O)O)cc2)CCC3)ccc1F)c1cc2c(cc1F)OC(F)(F)O2 (single isomer, unassigned) [Example 36j]	C (RLU 0.0 μM-3.5 μM)
CC[C@H](Oc1cc(-n2nc(C(F)(F)F)c3c2[C@@H](Oc2ccc(C(=O)O)cc2)CCC3)ccn1)c1ccc2c(c1)OC(F)(F)O2 (single isomer, unassigned) [Example 36k]	C (RLU 0.0 μM-3.5 μM)
C[C@H](Oc1cccc(-n2nc(C(F)(F)F)c3c2[C@@H](Oc2ccc(C(=O)O)cc2)CCC3)n1)c1cc2c(cc1F)OC(F)(F)O2 (single isomer, unassigned) [Example 36l]	A (RLU 5.0 μM-10 μM)
C[C@H](Oc1nc(-n2nc(C(F)(F)F)c3c2[C@@H](Oc2ccc(C(=O)O)cc2)CCC3)ccc1F)c1cc2c(cc1F)OC(F)(F)O2 (single isomer, unassigned) [Example 36m]	A (RLU 5.0 μM-10 μM)
C[C@H](Oc1cccc(-n2nc(C(F)(F)F)c3c2C(OC24CC(C(=O)O)(C2)C4)CCC3)c1)c1ccc2c(c1)OC(F)(F)O2 (single isomer, unassigned) [Example 42]	A (RLU 5.0 μM-10 μM)
C[C@@H](Oc1cc(-n2nc(C(F)(F)F)c3c2C(O[C@H]2CC[C@H](C(=O)O)CC2)CCC3)ccn1)c1ccc2c(c1)OC(F)(F)O2 (single isomer, unassigned) [Example 43]	A (RLU 5.0 μM-10 μM)
C[C@H](Oc1cc(-n2nc(C(F)(F)F)c3c2C(O[C@H]2CC[C@H](C(=O)O)CC2)CCC3)ccn1)c1ccc2c(c1)OC(F)(F)O2 (single isomer, unassigned) [Example 44]	A (RLU 5.0 μM-10 μM)
C[C@@H](Oc1cc(-n2nc(C(F)(F)F)c3c2C(O[C@H]2CC[C@H](C(=O)O)CC2)CCC3)ccn1)c1cc2c(cn1)OC(F)(F)O2 (single isomer, unassigned) [Example 47]	B (RLU 3.5 μM-5.0 μM)
C[C@H](Oc1cc(-n2nc(C(F)(F)F)c3c2C(O[C@H]2CC[C@H](C(=O)O)CC2)CCC3)ccn1)c1cc2c(cn1)OC(F)(F)O2 (single isomer, unassigned) [Example 48]	C (RLU 0.0 μM-3.5 μM)
C[C@H](Oc1cc(-n2nc(C(F)(F)F)c3c2[C@@H](O[C@H]2CC[C@H](C(=O)O)CC2)CCC3)cnn1)c1ccc2c(c1)OC(F)(F)O2 (single isomer, unassigned) [Example 55]	C (RLU 0.0 μM-3.5 μM)
C[C@H](Oc1cc(-n2nc(C(F)(F)F)c3c2[C@H](O[C@H]2CC[C@H](C(=O)O)CC2)CCC3)cnn1)c1ccc2c(c1)OC(F)(F)O2 (single isomer, unassigned) [Example 56]	B (RLU 3.5 μM-5.0 μM)
C[C@H](Oc1cncc(-n2nc(C(F)(F)F)c3c2[C@@H](OC24CCC(C(=O)O)(CC2)CC4)CCC3)c1)c1ccc2c(c1)OC(F)(F)O2 (single isomer, unassigned) [Example 57]	B (RLU 3.5 μM-5.0 μM)
C[C@H](Oc1cncc(-n2nc(C(F)(F)F)c3c2[C@H](OC24CCC(C(=O)O)(CC2)CC4)CCC3)c1)c1ccc2c(c1)OC(F)(F)O2 (single isomer, unassigned) [Example 58]	B (RLU 3.5 μM-5.0 μM)
C[C@H](Oc1cc(-n2nc(C(F)(F)F)c3c2[C@@H](OC24CCC(C(=O)O)(CC2)CC4)CCC3)cnc1F)c1ccc2c(c1)OC(F)(F)O2 (single isomer, unassigned) [Example 59]	C (RLU 0.0 μM-3.5 μM)
C[C@H](Oc1cc(-n2nc(C(F)(F)F)c3c2[C@H](OC24CCC(C(=O)O)(CC2)CC4)CCC3)cnc1F)c1ccc2c(c1)OC(F)(F)O2 (single isomer, unassigned) [Example 60]	C (RLU 0.0 μM-3.5 μM)
C[C@H](Oc1cc(-n2nc(C(F)(F)F)c3c2[C@@H](Oc2ccc(C(=O)O)cc2)CCC3)cnn1)c1ccc2c(c1)OC(F)(F)O2 (single isomer, unassigned) [Example 61]	C (RLU 0.0 μM-3.5 μM)

SMILES	RLUs: ΔF508-CFTR-HRP trafficking data normalized to the vehicle treated control (0.3% DMSO)
C[C@H](Oc1cc(-n2nc(C(F)(F)F)c3c2[C@@H](OC24CC(C(=O)O)(C2)C4)CCC3)cnn1)c1ccc2c(c1)OC(F)(F)O2 (single isomer, unassigned) [Example 62]	C (RLU 0.0 μM-3.5 μM)
C[C@H](Oc1cc(-n2nc(C(F)(F)F)c3c2[C@H](OC24CC(C(=O)O)(C2)C4)CCC3)cnn1)c1ccc2c(c1)OC(F)(F)O2 (single isomer, unassigned) [Example 63]	B (RLU 3.5 μM-5.0 μM)
C[C@H](Oc1cc(-n2nc(C(F)(F)F)c3c2[C@@H](OC24CCC(C(=O)O)(CC2)CC4)CCC3)ccn1)c1ccc2c(c1)OC(F)(F)O2 (single isomer, unassigned) [Example 64]	A (RLU 5.0 μM-10 μM)
C[C@H](Oc1cc(-n2nc(C(F)(F)F)c3c2[C@H](OC24CCC(C(=O)O)(CC2)CC4)CCC3)ccn1)c1ccc2c(c1)OC(F)(F)O2 (single isomer, unassigned) [Example 65]	C (RLU 0.0 μM-3.5 μM)
C[C@H](Oc1cncc(-n2nc(C(F)(F)F)c3c2[C@@H](O[C@H]2CC[C@H](C(=O)O)CC2)CCC3)c1)c1ccc2c(c1)OC(F)(F)O2 (single isomer, unassigned) [Example 66]	A (RLU 5.0 μM-10 μM)
C[C@H](Oc1cncc(-n2nc(C(F)(F)F)c3c2[C@H](O[C@H]2CC[C@H](C(=O)O)CC2)CCC3)c1)c1ccc2c(c1)OC(F)(F)O2 (single isomer, unassigned) [Example 67]	A (RLU 5.0 μM-10 μM)
C[C@H](Oc1cc(-n2nc(C(F)(F)F)c3c2[C@@H](Oc2ccc(C(=O)O)cc2)CCC3)cnc1F)c1ccc2c(c1)OC(F)(F)O2 (single isomer, unassigned) [Example 68]	C (RLU 0.0 μM-3.5 μM)
C[C@H](Nc1cc(-n2nc(C(F)(F)F)c3c2[C@@H](Oc2ccc(C(=O)O)cc2)CCC3)ccn1)c1ccc2c(c1)OC(F)(F)O2 (single isomer, unassigned) [Example 87]	A (RLU 5.0 μM-10 μM)
CC[C@H](Nc1cc(-n2nc(C(F)(F)F)c3c2[C@@H](Oc2ccc(C(=O)O)cc2)CCC3)ccn1)c1ccc2c(c1)OC(F)(F)O2 (single isomer, unassigned) [Example 88]	C (RLU 0.0 μM-3.5 μM)
CC(C)[C@H](Nc1cc(-n2nc(C(F)(F)F)c3c2[C@@H](Oc2ccc(C(=O)O)cc2)CCC3)ccn1)c1ccc2c(c1)OC(F)(F)O2 (single isomer, unassigned) [Example 89]	C (RLU 0.0 μM-3.5 μM)
O=C(O)c1ccc(O[C@H]2CCCc3c(C(F)(F)F)nn(-c4ccnc(N[C@H](c5ccc6c(c5)OC(F)(F)O6)C5CC5)c4)c32)cc1 (single isomer, unassigned) [Example 90]	C (RLU 0.0 μM-3.5 μM)
C[C@H](Nc1cccc(-n2nc(C(F)(F)F)c3c2[C@@H](Oc2ccc(C(=O)O)cc2)CCC3)n1)c1ccc2c(c1)OC(F)(F)O2 (single isomer, unassigned) [Example 91]	A (RLU 5.0 μM-10 μM)
C[C@H](Nc1nc(-n2nc(C(F)(F)F)c3c2[C@@H](Oc2ccc(C(=O)O)cc2)CCC3)ccc1F)c1ccc2c(c1)OC(F)(F)O2 (single isomer, unassigned) [Example 92]	B (RLU 3.5 μM-5.0 μM)
C[C@H](Nc1cc(-n2nc(C(F)(F)F)c3c2[C@@H](Nc2ccc(C(=O)O)cc2)CCC3)ccn1)c1ccc2c(c1)OC(F)(F)O2 (single isomer, unassigned) [Example 93]	A (RLU 5.0 μM-10 μM)
C[C@H](Nc1cc(-n2nc(C(F)(F)F)c3c2[C@@H](OC24CC(C(=O)O)(C2)C4)CCC3)ccc1F)c1ccc2c(c1)OC(F)(F)O2 (single isomer, unassigned) [Example 95 (P1)]	C (RLU 0.0 μM-3.5 μM)
C[C@H](Oc1cc(-n2nc(C#N)c3c2[C@@H](Oc2ccc(C(=O)O)cc2)CCC3)ccc1F)c1ccc2c(c1)OC(F)(F)O2 (single isomer, unassigned) [Example 104]	B (RLU 3.5 μM-5.0 μM)
C[C@H](Oc1cc(-n2nc(C(F)(F)F)c3c2[C@@H](Nc2ccc(C(=O)O)cc2)CCC3)ccn1)c1ccc2c(c1)OC(F)(F)O2 (single isomer, unassigned) [Example 109]	A (RLU 5.0 μM-10 μM)
C[C@H](Oc1cc(-n2nc(C(F)(F)F)c3c2[C@@H](Nc2ccc(C(=O)O)cc2)CCC3)ccn1)c1cc2c(cc1F)OC(F)(F)O2 (single isomer, unassigned) [Example 110]	B (RLU 3.5 μM-5.0 μM)
